Measurements taken from US5280125A, “Chemical process for the preparation of 3-alkylated indole” (Imperial Chemical Industries PLC, priority 1990, dated 1994).

How the values were obtained:
leukotriene LTD4 = test: guinea-pig aerosol test (LTD4 aerosol challenge, onset of dyspnea); type: in vivo
Procedure: According to this procedure, guinea-pigs are pre-dosed with test compound as a solution in poly(ethylene glycol) (generally 1 hour) before an aerosol challenge of leukotriene LTD4 (starting with 2 ml of a 30 microgram/ml solution) and the effect of the test compound on the average time of leukotriene initiated change in breathing pattern (such as onset of dyspnea) recorded and compared with that in undosed, control guinea-pigs. Percent protection engendered by a test compound was calculated from the time delay to the onset of dyspnea compared to that for control animals.

LTC4, LTD4 and/or LTE4 = test: in vitro leukotriene antagonist tests (guinea-pig tracheal strip preparation or receptor-ligand binding assay); settings: in one of the above in vitro tests

Compound	ED50 (leukotriene LTD4; Cavia porcellus, 1 h, oral administration, protection against LTD4 aerosol-induced dyspnea) [µmol/kg]	untoward side-effects (leukotriene LTD4; oral, at several multiples of the minimum effective dose)	concentration showing statistically significant activity as LTC4, LTD4 and/or LTE4 antagonist (LTC4, LTD4 and/or LTE4)
COc1cc(C(=O)NS(=O)(=O)c2ccccc2C)ccc1Cc1cn(C)c2ccc(C(=O)NC[C@H](C)CC(F)(F)F)cc12 [compound of formula I substantially in the form of the (R)-enantiomer, (R)-4-[5-(N-[4,4,4-trifluoro-2-methylbutyl]carbamoyl)-1-methylindol-3-yl-methyl]-3-methoxy-N-o-tolylsulphonylbenzamide]	1.1	without any indication of untoward side-effects	
COc1cc(C(=O)NS(=O)(=O)c2ccccc2C)ccc1Cc1cn(C)c2ccc(C(=O)NCC(C)CC(F)(F)F)cc12 (stereo not drawn) [compound of formula I, 4-[5-(N-[4,4,4-trifluoro-2-methylbutyl]carbamoyl)-1-methylindol-3-ylmethyl]-3-methoxy-N-o-tolylsulphonylbenzamide]			≤ 10^-8 M
